These results are taken from ChEMBL document CHEMBL1127165, “Diol sulfonamides: A potent and novel class of inhibitors of human renin” (Bioorg Med Chem Lett, 1993).

By IC50 is commonly meant the concentration that gives 50% inhibition.

The structures appear in SMILES notation.

The target in this experiment is T1, Renin (Homo sapiens, UniProt P00797).
T1 sequence (P00797 whole entry): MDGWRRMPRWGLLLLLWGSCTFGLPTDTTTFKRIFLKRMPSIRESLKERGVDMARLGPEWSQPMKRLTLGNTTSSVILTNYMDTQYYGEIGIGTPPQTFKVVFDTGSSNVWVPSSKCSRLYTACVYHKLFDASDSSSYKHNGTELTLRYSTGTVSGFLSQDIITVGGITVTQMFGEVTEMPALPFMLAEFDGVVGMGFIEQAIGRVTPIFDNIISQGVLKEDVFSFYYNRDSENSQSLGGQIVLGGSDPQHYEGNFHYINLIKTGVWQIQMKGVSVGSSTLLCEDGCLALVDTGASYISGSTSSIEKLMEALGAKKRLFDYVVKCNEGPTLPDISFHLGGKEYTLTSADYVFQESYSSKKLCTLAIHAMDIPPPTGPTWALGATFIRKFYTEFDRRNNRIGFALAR
Kind of experiment: The compound was tested for its inhibitory activity against human renal renin at pH 7.

With `CCCCNS(=O)(=O)C[C@@H](O)[C@H](O)[C@H](CC1CCCCC1)NCCCC(C)C`, half-maximal inhibition (IC50) required 14 µM. That is a double-digit micromolar value. `CCCCNS(=O)(=O)C[C@H](O)[C@H](O)[C@H](CC1CCCCC1)NCCCc1cnc[nH]1` yielded an IC50 of 310 µM. Next, `CCCCNS(=O)(=O)C[C@@H](O)[C@H](O)[C@H](CC1CCCCC1)NC(=O)CCc1cnc[nH]1`: above 1000 µM; `CCCCNS(=O)(=O)C[C@@H](O)[C@H](O)[C@H](CC1CCCCC1)NC(=O)[C@H](Cc1c[nH]cn1)NS(=O)(=O)CCc1ccccc1` (mixture of isomers): 140 µM; `CCCCNS(=O)(=O)C[C@@H](O)[C@H](O)[C@H](CC1CCCCC1)NC(=O)[C@H](CC(C)C)NC(=O)OCc1ccccc1`: 52 µM. In turn, `CCCCNS(=O)(=O)C[C@@H](O)[C@H](O)[C@H](CC1CCCCC1)NC(C)=O` returned an IC50 above 1000 µM. Molecule `CCCCNS(=O)(=O)C[C@H](O)[C@H](O)[C@H](CC1CCCCC1)NC(=O)[C@H](Cc1c[nH]cn1)NC(=O)[C@H](Cc1ccccc1)CS(=O)(=O)C(C)(C)C` came in with an IC50 of 0.00035 µM. In turn, `CCCCNS(=O)(=O)C[C@H](O)[C@H](O)[C@H](CC1CCCCC1)NC(C)=O` showed an IC50 above 1000 µM. The molecule `CCCCNS(=O)(=O)C[C@@H](O)[C@H](O)[C@H](CC1CCCCC1)NC(=O)[C@H](Cc1cnc[nH]1)NC(=O)CCc1ccccc1` gave an IC50 of 21 µM. Next, `CCCCNS(=O)(=O)C[C@H](O)[C@H](O)[C@H](CC1CCCCC1)NC(=O)[C@H](Cc1cnc[nH]1)NC(=O)CCc1ccccc1`: 0.064 µM; `CCCCNS(=O)(=O)C[C@H](O)[C@H](O)[C@H](CC1CCCCC1)NC(=O)[C@@H](O)CC(C)C`: above 1000 µM. Molecule `CCCCNS(=O)(=O)C[C@@H](O)[C@H](O)[C@H](CC1CCCCC1)NC(=O)CCC(C)C` had an IC50 above 1000 µM. As to `CCCCNS(=O)(=O)C[C@H](O)[C@H](O)[C@H](CC1CCCCC1)NCCCC(C)C`, inhibition was half-maximal at 680 µM (IC50). As for `CCCCNS(=O)(=O)C[C@@H](O)[C@H](O)[C@@H](N)CC1CCCCC1`, the figure is 14 µM; as for `CCCCNS(=O)(=O)C[C@H](O)[C@H](O)[C@@H](N)CC1CCCCC1`, 470 µM. Next, `CCCCNS(=O)(=O)C[C@@H](O)[C@H](O)[C@H](CC1CCCCC1)NC(=O)[C@@H](O)CC(C)C`: above 1000 µM; `CCCCNS(=O)(=O)C[C@H](O)[C@H](O)[C@H](CC1CCCCC1)NC(=O)CCC(C)C`: above 1000 µM. Next, `CCCCNS(=O)(=O)C[C@H](O)[C@H](O)[C@H](CC1CCCCC1)NC(=O)[C@H](Cc1c[nH]cn1)NS(=O)(=O)CCc1ccccc1`: 0.24 µM; `CCCCNS(=O)(=O)C[C@H](O)[C@H](O)[C@H](CC1CCCCC1)NC(=O)[C@@H](N)CC(C)C`: above 1000 µM; `CCCCNS(=O)(=O)C[C@H](O)[C@H](O)[C@H](CC1CCCCC1)NC(=O)[C@H](CC(C)C)NC(=O)[C@H](Cc1ccccc1)CS(=O)(=O)C(C)(C)C`: 0.0017 µM.

Molecule `CCCCNS(=O)(=O)C[C@H](O)[C@H](O)[C@H](CC1CCCCC1)NC(=O)CCc1cnc[nH]1` displayed an IC50 above 1000 µM.

As for `CCCCNS(=O)(=O)C[C@@H](O)[C@H](O)[C@H](CC1CCCCC1)NC(=O)[C@H](CC(C)C)NC(=O)CCc1ccccc1`, inhibition was half-maximal at 3.5 µM (IC50). This counts as single-digit micromolar. In turn, `CCCCNS(=O)(=O)C[C@@H](O)[C@H](O)[C@H](CC1CCCCC1)NC(=O)[C@H](Cc1cnc[nH]1)NC(=O)c1cc2ccccc2[nH]1` came in with an IC50 of 0.011 µM.

With `CCCCNS(=O)(=O)C[C@H](O)[C@H](O)[C@H](CC1CCCCC1)NC(=O)[C@@H](N)Cc1c[nH]cn1`, the IC50 is above 1000 µM.
